Data reported in patent publication US20110086877A1 (priority 2005, published 2011).
Values joined by “and” are separate entries in the source; they are usually repeats but may differ in a detail not shown here. Equal entries are not always repeated.

Assays:
BoNT/A holotoxin = BoNT/A holotoxin (Clostridium botulinum, UniProt P0DPI1); format: cell-based
anthrax lethal factor = anthrax lethal factor (Bacillus anthracis, UniProt P15917); format: biochemical
BoNT/A LC [1] = target: T1, BoNT/A LC (Clostridium botulinum, UniProt P0DPI0); assay: biochemical; format: binding
[2] = target: BoNT/A LC metalloprotease (Clostridium botulinum, UniProt P0DPI0); assay: biochemical
[3] = test system: chick spinal motor neurons
BoNT/A LC [4] = target: T1, BoNT/A LC; conditions: cited from earlier work

Chain of BoNT/A LC metalloprotease (P0DPI0 2-448 limits assumed): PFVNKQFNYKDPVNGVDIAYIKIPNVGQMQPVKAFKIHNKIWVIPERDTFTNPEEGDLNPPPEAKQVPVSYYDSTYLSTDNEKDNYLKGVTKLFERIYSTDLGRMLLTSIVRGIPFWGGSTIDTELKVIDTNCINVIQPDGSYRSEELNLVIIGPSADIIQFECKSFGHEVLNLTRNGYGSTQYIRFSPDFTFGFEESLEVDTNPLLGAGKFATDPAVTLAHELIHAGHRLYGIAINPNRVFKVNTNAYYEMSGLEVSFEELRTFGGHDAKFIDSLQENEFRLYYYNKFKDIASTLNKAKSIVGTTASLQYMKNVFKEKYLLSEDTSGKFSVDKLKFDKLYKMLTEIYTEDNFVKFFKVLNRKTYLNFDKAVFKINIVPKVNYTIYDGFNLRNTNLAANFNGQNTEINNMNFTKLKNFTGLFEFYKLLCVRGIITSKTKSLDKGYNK
T1 sequence (P0DPI0 2-448 limits assumed): as above
Chain of anthrax lethal factor (P15917 34-809 limits assumed): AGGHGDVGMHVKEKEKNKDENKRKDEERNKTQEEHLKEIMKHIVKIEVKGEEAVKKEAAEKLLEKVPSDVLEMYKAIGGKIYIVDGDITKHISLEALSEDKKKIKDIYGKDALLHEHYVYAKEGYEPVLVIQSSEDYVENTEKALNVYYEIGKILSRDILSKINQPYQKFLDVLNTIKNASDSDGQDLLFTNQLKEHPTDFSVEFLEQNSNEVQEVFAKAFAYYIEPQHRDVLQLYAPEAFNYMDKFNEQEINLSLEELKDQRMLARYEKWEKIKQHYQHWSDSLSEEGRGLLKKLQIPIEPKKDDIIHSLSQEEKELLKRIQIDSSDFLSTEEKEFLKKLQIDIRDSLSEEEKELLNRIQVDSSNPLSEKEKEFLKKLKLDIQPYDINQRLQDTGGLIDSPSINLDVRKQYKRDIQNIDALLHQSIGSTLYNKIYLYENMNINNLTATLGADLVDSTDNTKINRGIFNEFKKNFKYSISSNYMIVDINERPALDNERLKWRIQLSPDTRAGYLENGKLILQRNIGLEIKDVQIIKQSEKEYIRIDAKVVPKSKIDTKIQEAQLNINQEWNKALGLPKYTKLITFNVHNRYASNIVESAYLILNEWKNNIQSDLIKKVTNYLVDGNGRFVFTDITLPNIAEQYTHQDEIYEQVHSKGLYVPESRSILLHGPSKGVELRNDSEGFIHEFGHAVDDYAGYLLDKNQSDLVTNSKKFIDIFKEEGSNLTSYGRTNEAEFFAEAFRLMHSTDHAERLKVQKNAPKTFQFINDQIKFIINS
Chain of BoNT/A holotoxin (P0DPI1 2-448 limits assumed): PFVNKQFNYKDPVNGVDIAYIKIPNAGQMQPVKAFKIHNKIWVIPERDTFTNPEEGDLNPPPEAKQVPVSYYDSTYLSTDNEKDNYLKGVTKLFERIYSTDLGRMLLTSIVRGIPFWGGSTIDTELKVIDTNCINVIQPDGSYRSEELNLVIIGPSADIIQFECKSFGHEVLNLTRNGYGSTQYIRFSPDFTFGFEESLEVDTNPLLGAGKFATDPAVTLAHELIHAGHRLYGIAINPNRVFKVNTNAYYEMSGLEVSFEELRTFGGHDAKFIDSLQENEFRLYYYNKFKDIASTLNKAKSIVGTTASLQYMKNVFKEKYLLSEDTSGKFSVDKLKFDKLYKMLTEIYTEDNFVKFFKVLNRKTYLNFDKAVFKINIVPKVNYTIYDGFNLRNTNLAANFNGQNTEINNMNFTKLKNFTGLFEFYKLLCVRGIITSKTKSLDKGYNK

| Molecule | inhibition of protease activity of anthrax lethal factor (anthrax lethal factor) | % Inhibition of BoNT/A LC metalloprotease activity [2] [%] | other results |
| --- | --- | --- | --- |
| N=C(N)c1ccc(Oc2ccc(-c3cc4ccc(C(=N)N)cc4[nH]3)cc2)cc1 [NSC 240898] | inhibit the protease activity of anthrax lethal factor | 61 | inhibition of SNAP-25 cleavage (BoNT/A holotoxin): robust dose-dependent inhibition; ΔH (BoNT/A LC [1]): −3.04 and −3.04 ± 0.20 kcal mol^−1; ΔS (BoNT/A LC [1]): 14 and 14.0 cal mol^−1 K^−1; Kd (BoNT/A LC [1]; Kd): ~4.6 µM and 4.6 µM; Ka (BoNT/A LC [1]; pH 7.4): 218000 ± 45000 M⁻¹; N (number of binding sites, stoichiometry) (BoNT/A LC [1]; pH 7.4): 0.83±0.04; morphological signs of damage (tubulin, actin, DNA staining) [3]: little or no morphological signs of damage; concentration tolerated by cells without substantial cytotoxic effects ([3]; chick): about 40 μM |
| N=C(N)c1ccc2oc(/C=C/c3cc4cc(C(=N)N)ccc4s3)cc2c1 [NSC 266472] |  | 57 |  |
| C(=C\c1cc2cc(C3=NCCN3)ccc2o1)/c1cc2cc(C3=NCCN3)ccc2o1 [NSC 278999] |  | 53 |  |
| N=C(N)c1ccc2[nH]c(/C=C/c3cc4cc(C(=N)N)ccc4o3)cc2c1 [NSC 290107] | inhibit the protease activity of anthrax lethal factor | 52 |  |
| C(=C\c1cc2cc(C3=NCCN3)ccc2o1)/c1cc2cc(C3=NCCN3)ccc2[nH]1 [NSC 290108] | inhibit the protease activity of anthrax lethal factor | 51 |  |
| N=C(N)c1ccc2cc(/C=C/c3cc4ccc(C(=N)N)cc4o3)[nH]c2c1 [NSC 294200] | inhibit the protease activity of anthrax lethal factor | 48 |  |
| N=C(N)c1ccc2[nH]c(/C=C/c3cc4ccc(C(=N)N)cc4o3)cc2c1 [NSC 294203] | inhibit the protease activity of anthrax lethal factor | 46 |  |
| C(=C\c1cc2ccc(C3=NCCN3)cc2o1)/c1cc2cc(C3=NCCN3)ccc2[nH]1 [NSC 294204] | inhibit the protease activity of anthrax lethal factor | 38 |  |
| C(=C\c1cc2ccc(C3=NCCN3)cc2o1)/c1cc2ccc(C3=NCCN3)cc2o1 [NSC 294494] |  | 45 |  |
| N=C(N)c1ccc2oc(/C=C/C=C/c3cc4cc(C(=N)N)ccc4o3)cc2c1 [NSC 300511] | inhibit the protease activity of anthrax lethal factor | 37 |  |
| C(/C=C/c1cc2cc(C3=NCCN3)ccc2o1)=C\c1cc2cc(C3=NCCN3)ccc2o1 [NSC 308571] | inhibit the protease activity of anthrax lethal factor | 52 |  |
| N=C(N)c1ccc2oc(/C=C/C=C/C=C/c3cc4cc(C(=N)N)ccc4o3)cc2c1 [NSC 308574] | inhibit the protease activity of anthrax lethal factor | 63 | concentration at which highly cytotoxic ([3]; chick): 1000 to 5000 nM |
| C(=C\c1cc2ccc(C3=NCCN3)cc2[nH]1)/c1cc2ccc(C3=NCCN3)cc2[nH]1 [NSC 317880] | inhibit the protease activity of anthrax lethal factor | 35 |  |
| c1cc2cc(-c3ccc(-c4cc5ccc(C6=NCCN6)cc5[nH]4)cc3)[nH]c2cc1C1=NCCN1 [NSC 317881] | inhibit the protease activity of anthrax lethal factor | 45 |  |
| C(=C\c1cc2cc(C3=NCCN3)ccc2s1)/c1ccc(C2=NCCN2)cc1 [NSC 317883] |  | 41 |  |
| N=C(N)c1ccc(/C=C/c2cc3cc(C(=N)N)ccc3[nH]2)cc1 [NSC 317884] | inhibit the protease activity of anthrax lethal factor | 47 |  |
| N=C(N)c1ccc(/C=C/c2cc3ccc(C(=N)N)cc3[nH]2)cc1 [NSC 317886] | inhibit the protease activity of anthrax lethal factor | 43 |  |
| CCN(CC)CCCNc1cc(C)nc2c1ccc1c2ccc2c(NCCCN(CC)CC)cc(C)nc21 [NSC 328398] |  |  | inhibition at 10 µM ([2]; at 10 μM): 45% |
| c1cc2cc(-c3cc4ccc(C5=NCCN5)cc4[nH]3)[nH]c2cc1C1=NCCN1 [NSC 330688] |  | 43 |  |
| C(=C\c1cc2ccc(C3=NCCN3)cc2[nH]1)/c1ccc(Oc2ccc(C3=NCCN3)cc2)cc1 [NSC 330690] |  | 53 |  |
| C(=C\c1cc2ccc(C3=NCCN3)cc2[nH]1)/c1ccc2cc(C3=NCCN3)[nH]c2c1 [NSC 341907] | inhibit the protease activity of anthrax lethal factor | 60 |  |
| N=C(N)N/N=C/c1ccc(-c2cc3ccc(/C=N/NC(=N)N)cc3s2)cc1 [NSC 341909] | inhibit the protease activity of anthrax lethal factor | 68 | concentration at which highly cytotoxic ([3]; chick): 1000 to 5000 nM |
| C1=NC(c2ccc3cc(-c4c(-c5ccc(C6=NCCN6)cc5)[nH]c5cc(C6=NCCN6)ccc45)[nH]c3c2)NC1 (stereo not shown) [NSC 341911] | inhibit the protease activity of anthrax lethal factor | 37 |  |
| C(=C\c1ccc2[nH]c(C3=NCCN3)cc2c1)/c1ccc(Oc2ccc(C3=NCCN3)cc2)cc1 [NSC 352341] |  | 40 |  |
| C(=C/c1cc2cc(C3=NCCN3)ccc2o1)/c1cc2cc(C3=NCCN3)ccc2o1 [NSC 607617] |  | 36 |  |
| C[C@H](CS)C(=O)N1CCC[C@H]1C(=O)O [captopril] |  |  | inhibition of BoNT/A LC by known protease inhibitors (BoNT/A LC [4]): inhibited by mM concentrations |
| CCOC(=O)[C@H](CCc1ccccc1)N[C@@H](C)C(=O)N1CCC[C@H]1C(=O)O [enalapril] |  |  | inhibition of BoNT/A LC by known protease inhibitors (BoNT/A LC [4]): inhibited by mM concentrations |
| NCCCC[C@H](N[C@@H](CCc1ccccc1)C(=O)O)C(=O)N1CCC[C@H]1C(=O)O [lysinopril] |  |  | inhibition of BoNT/A LC by known protease inhibitors (BoNT/A LC [4]): inhibited by mM concentrations |
| CRATKML |  |  | inhibitor potency in words (BoNT/A LC [4]): potent inhibitor |
